Experimental data: patent publication US8053627B2, “Methods for treating demyelination disorders” (University of Chicago, priority 2005, dated 2011)
Where “and” joins values, the source holds several entries; their conditions need not be identical. Equal values may be shown once. Read-outs that look alike come from different tables or passages of the source.

Legend:
[1] = tested on: EAE-induced demyelination; conditions: for Mean of maximum clinical score (mean ± S.D.): 0–5 point scale; for Day of onset of disease (PID: postimmunization day): n = 25; for CD3 T cell infiltration in the lumbar spinal cord / EAE-induced demyelination: myelin, axons and oligodendrocytes in the lumbar spinal cord: PID 17
[2] = tested on: oligodendrocytes and myelin; assay: IFN-γ-overexpressing mice crossed to PLP/SOCS1 mice, clinical and histological evaluation at postnatal day 21; assay type: in vivo; conditions: for oligodendrocyte density: corpus callosum, postnatal day 21; for G ratio (axon diameter/fiber diameter ratio): hypomyelination defined as G ratio>0.8
Method: IFN-γ-overexpressing mice were crossed to the PLP/SOCS1 mice in double-transgenic, (MBP/IFN-γ×PLP/SOCS1) and triple-transgenic (GFAP/tTA×TRE/IFN-γ×PLP/SOCS1) mating systems. MBP/IFN-γ×PLP/SOCS1 (172×PLP/SOCS1) mating was performed according to a standard mating protocol. The GFAP/tTA×TRE/IFN-γ×PLP/SOCS1 matings were performed in a 2-step mating process: GFAP/tTA mice were initially crossed to PLP/SOCS1 mice, and double-positive (184×PLP/SOCS1) offspring were then crossed to the TRE/IFN-γ lines 110 and 67, separately. This second mating step was performed according to the previously described “tet-off” protocol. Doxycycline 0.05 mg/ml (Sigma-Aldich) was added to the water of impregnated female mice until embryonic day 14, after which the animals were switched back to normal water, thereby allowing initiation of IFN-γ transcription, which peaks during the postnatal period (Lin et al., 2005).
The litters of the mating systems (F1 generation) were examined daily and sacrificed at postnatal day 21. Clinical evaluation included behavioral observation and challenged ladder walking to elicit tremor. Histological examination included quantitation of the number and density of oligodendrocytes and examination of the myelination patterns. Brain tissue was simultaneously obtained from each animal at the time of sacrifice to verify and measure the expression of IFN-γ and Flag-SOCS1 (see below). The clinical and histological findings were subsequently stratified according to genotype. All animal procedures were conducted in compliance with the National Institutes of Health Guide for Care and Use of Laboratory Animals and were approved by the Institutional Animal Care and Use Committee at The University of Chicago.
Oligodendrocyte cell density was assessed digitally using Axiovision software, at postnatal day 21, as previously described (Lin et al., 2005). The brains were sectioned sagittally through the corpus callosum dividing the brain in two symmetrical halves. Ten frozen sections from each half were prepared at 7 μm thickness, and numbered in the sequence of their preparation. The brains of three animals per study group were prepared in this fashion. Following the CC1 immunostaining the corresponding area of corpus callosum of each section was digitally selected and the corresponding total area obtained. CC1 cell counting was performed manually within the selected areas of each section, and the number of CC1 positive cells per square area (mm^2) calculated. The results were presented as mean±SD of CC1 (+) cells/mm^2 with n=3 animals per study group.
Myelination patterns of the examined animals were assessed at postnatal day 21 by calculating the percent unmyelinated axons and ratio of the axon/fiber diameters (G ratio) with Image J software (National Institutes of Health, Bethesda, Md.) as previously described (Lin at al., 2005). The brains were sectioned sagittally through the corpus callosum dividing the brain in two symmetrical halves. Approximately 2 mm^3 samples from the genu and the splenum of both halves of corpus callosum were obtained using a Wild M3C stereotype microscope. The orientation of the specimen in the resin blocks yielding axonal cross-sections (well seen myelin rings) was chosen, and established by toluedine blue staining of a few sample sections. The resin blocks with the chosen orientation were processed for electron microscope examination. Randomly selected areas were examined and ten representative pictures from both genu and splenum corpus callosum were obtained at 12000× magnification. The number of unmyelinated axons was assessed by manual counting of axons that lacked myelin and were encircled solely by their own plasma membrane. All unmyelinated axons present in the representative images were counted, and their percentage calculated by examining a total of five hundred axons per tissue sample. […]

[3] = PERK+/+ background, listed as INF-γ
[4] = PERK+/+ background, peak of disease

IFN-γ: pleotropic cytokine secreted by activated T lymphocytes and natural killer cells; delivered to the CNS by transgene or added as recombinant protein
Incidence of death ([1]; DOX− double mice): 0/25 | Mean of maximum clinical score (mean ± S.D.) ([1]; DOX− double mice): 1.63 ± 0.51 | MBP mRNA in the spinal cord vs age-matched naïve mice ([1]; DOX− double mice, PID17): not significantly decreased | Day of onset of disease (PID: postimmunization day) ([1]; DOX− double mice): 14.7 ± 1.4 | Incidence of hind limb paralysis ([1]; DOX− double mice, listed as INF-γ): 2 of 25 and 2/25 | Incidence of death ([1]; DOX− triple mice (PERK+/−)): 3/25 | Incidence of hind limb paralysis ([1]; DOX− triple mice (PERK+/−)): 18/25 | Mean of maximum clinical score (mean ± S.D.) ([1]; DOX− triple mice (PERK+/−)): 2.71 ± 1.11 | Day of onset of disease (PID: postimmunization day) ([1]; DOX− triple mice (PERK+/−)): 13.6 ± 0.8 | CD3 positive T cell infiltration in the spinal cord ([1]; EAE onset): did not significantly affect | CD11b positive monocyte infiltration in the spinal cord ([1]; EAE onset): increased | PERK-eIF2α pathway in oligodendrocytes (p-PERK, p-eIF2α colocalization with CC1) ([1]; EAE onset): markedly activated | expression of iNOs, TNF-a, IL-2, IL-12 and IL-10 in the spinal cord (real time PCR) ([1]; EAE onset, PID14): strongly enhanced | expression of iNOs, TNF-a, IL-2, IL-12 and IL-10 in the spinal cord (real time PCR) ([1]; EAE onset, PID14, listed as INF-γ): increased | CD3 T cell infiltration in the lumbar spinal cord ([1]; PERK+/+ background): reduced | EAE-induced demyelination: myelin, axons and oligodendrocytes in the lumbar spinal cord ([1]; PERK+/+ background): protected | CD3 T cell infiltration in the lumbar spinal cord [1, 3]: lower | EAE-induced demyelination: myelin, axons and oligodendrocytes in the lumbar spinal cord [1, 3]: remained almost intact | expression of IL-2 in spinal cord [1, 4]: decreased | expression of IL-12 in spinal cord [1, 4]: decreased | expression of IL-23 in spinal cord [1, 4]: decreased | expression of IL-2 and IL-5 in the spinal cord (real time PCR) ([1]; PID14): did not affect | amelioration of EAE ([1]; mice heterozygous for the PERK mutation): did not ameliorate | CD11b positive monocyte infiltration ([1]; peak of disease): did not change | expression of IL-5 in spinal cord ([1]; peak of disease): did not significantly affect | expression of IL-10 in spinal cord ([1]; peak of disease): did not significantly affect | expression of iNOs or TNF-γ ([1]; peak of disease): did not significantly affect | Incidence of tremor ([2]; 172 × PLP/SOCS1 littermates, ten mice per group): 0% | oligodendrocytes lost ([2]; 184/67 system): approximately 40% | percentage of unmyelinated axons ([2]; 184/67 system): 57±7% | oligodendrocyte density ([2]; 184/67 system): 79±9 CC1 (+) cells/mm^2 | G ratio (axon diameter/fiber diameter ratio) ([2]; 184/67 system): 0.95±0.04 | oligodendrocytes lost ([2]; 184/110 system): approximately 20% | percentage of unmyelinated axons ([2]; 184/110 system): 41%±6 | oligodendrocyte density ([2]; 184/110 system): 115±8 CC1 (+) cells/mm^2 | G ratio (axon diameter/fiber diameter ratio) ([2]; 184/110 system): 0.89±0.02 | MHC class I molecule expression (immunostaining) ([2]; MBP/IFN-γ and MBP/IFN-γ×PLP/SOCS1 brains): upregulated expression
